Drawing on patent US10669242B2 (priority 2016, dated 2020), this text covers IC50 for 25 compounds.

T1 sequence (P18177 1-543): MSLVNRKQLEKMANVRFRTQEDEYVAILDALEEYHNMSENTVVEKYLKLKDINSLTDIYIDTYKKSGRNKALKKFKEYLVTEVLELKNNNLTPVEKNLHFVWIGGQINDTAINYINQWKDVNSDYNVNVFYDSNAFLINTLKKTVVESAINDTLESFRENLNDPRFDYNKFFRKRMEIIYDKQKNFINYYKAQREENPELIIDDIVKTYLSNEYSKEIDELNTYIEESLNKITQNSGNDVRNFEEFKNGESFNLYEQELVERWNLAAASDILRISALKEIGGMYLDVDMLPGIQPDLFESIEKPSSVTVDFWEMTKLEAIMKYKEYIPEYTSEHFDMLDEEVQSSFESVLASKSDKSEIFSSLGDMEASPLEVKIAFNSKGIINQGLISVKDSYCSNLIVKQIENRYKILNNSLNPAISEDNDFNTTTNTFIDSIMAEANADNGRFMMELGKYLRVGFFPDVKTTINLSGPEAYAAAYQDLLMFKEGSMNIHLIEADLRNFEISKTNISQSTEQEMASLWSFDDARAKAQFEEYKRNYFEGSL

The test concerns the target T1, recombinant glucosyltransferase domain of C. difficile Toxin B/TcdB (Clostridioides difficile, UniProt P18177).
T1 construct: 6-His (C); purchased R&D Systems 6246-GT
In words: biochemical.
Take `O=C(Nc1ccccn1)c1ccc(CN2C(=O)c3ccc(Cl)cc3NC(=O)[C@H]2Cc2ccccn2)s1` [Example 4bq, (R)-5-((8-chloro-2,5-dioxo-3-(pyridin-2-ylmethyl)-2,3-dihydro-1H-benzo[e][1,4]diazepin-4(5H)-yl)methyl)-N-(pyridin-2-yl)thiophene-2-carboxamide]: the IC50 (usually the midpoint of a concentration-inhibition curve) was 100 to 999 nM.

Take `Cn1cccc(C(=O)c2ccc(CN3C(=O)c4ccc(Cl)cc4NC(=O)[C@H]3Cc3ccccn3)cc2)c1=O` [Example 53a]: the 50% inhibitory concentration (IC50) is 100 to 999 nM. In the case of `O=C(Nc1ccccn1)c1ccc(CN2C(=O)c3ccc(Cl)cc3NC(=O)[C@H]2c2ccccc2)cc1` [Example 35c] it was 1000 to 10000 nM. Take `O=C(Nc1ccc(CN2C(=O)c3ccc(Cl)cc3NC(=O)[C@H]2Cc2ccccn2)cc1)c1cscn1` [Example 27f]: the half-maximal inhibitory concentration (IC50) is less than 100 nM. Take `O=C(Nc1ccccn1)c1ccc(S(=O)(=O)N2Cc3ccc(Cl)cc3NC(=O)[C@@H]2Cc2ccccn2)cc1` [Example 19c, (S)-4-((8-chloro-2-oxo-3-(pyridin-2-ylmethyl)-2,3-dihydro-1H-benzo[e][1,4]diazepin-4(5H)-yl)sulfonyl)-N-(pyridin-2-yl)benzamide]: the IC50 is 100 to 999 nM. In the case of `Cc1cc(CN2C(=O)c3ccc(Cl)cc3NC(=O)[C@H]2Cc2ccccn2)ccc1C(=O)O` [Example 7b, (R)-4-((8-chloro-2,5-dioxo-3-(pyridin-2-ylmethyl)-2,3-dihydro-1H-benzo[e][1,4]diazepin-4(5H)-yl)methyl)-2-methylbenzoic acid], the 50% inhibitory concentration (IC50) lay in the range of 100 to 999 nM. For the compound `O=C(Nc1ccccn1)c1ccc(CN2C(=O)c3ccc(Cl)cc3NC(=O)[C@H]2Cc2ccc(Cl)cc2)cc1` [Example 4j, (R)-4-((8-chloro-3-(4-chlorobenzyl)-2,5-dioxo-2,3-dihydro-1H-benzo[e][1,4]diazepin-4(5H)-yl)methyl)-N-(pyridin-2-yl)benzamide], the half-inhibitory concentration (IC50) was in the range of 1000 to 10000 nM. Take `Cc1ccc(C[C@@H]2C(=O)Nc3cc(Cl)ccc3C(=O)N2Cc2ccc(C(=O)Nc3ccccn3)cc2)cc1` [Example 4co, (R)-4-((8-chloro-3-(4-methylbenzyl)-2,5-dioxo-2,3-dihydro-1H-benzo[e][1,4]diazepin-4(5H)-yl)methyl)-N-(pyridin-2-yl)benzamide]: the IC50 is 100 to 999 nM. In the case of `Cc1ccc(NC(=O)c2ccc(CN3C(=O)c4ccc(Cl)cc4NC(=O)[C@H]3Cc3cccnc3)cc2)nc1` [Example 4n, (R)-4-((8-chloro-2,5-dioxo-3-(pyridin-3-ylmethyl)-2,3-dihydro-1H-benzo[e][1,4]diazepin-4(5H)-yl)methyl)-N-(5-methylpyridin-2-yl)benzamide] it was less than 100 nM; in that of `O=C(O)c1ccc(CN2C(=O)c3ccc(F)cc3NC(=O)[C@H]2Cc2cccnc2)cc1` [Example 1b], 1000 to 10000 nM; in that of `O=C(Nc1ccc(CN2C(=O)c3ccc(Cl)cc3NC(=O)[C@H]2Cc2cccnc2)cc1)c1ccccn1` [Example 26a, (R)—N-(4-((8-Chloro-2,5-dioxo-3-(pyridin-3-ylmethyl)-2,3-dihydro-1H-benzo[e][1,4]diazepin-4(5H)-yl)methyl)phenyl)picolinamide], 100 to 999 nM.

For `O=C(NS(=O)(=O)c1ccccc1)c1ccc(CN2C(=O)c3ccc(Cl)cc3NC(=O)[C@H]2Cc2cccnc2)cc1` [Example 15a, (R)-4-((8-Chloro-2,5-dioxo-3-(pyridin-3-ylmethyl)-2,3-dihydro-1H-benzo[e][1,4]diazepin-4(5H)-yl)methyl)-N-(phenylsulfonyl)benzamide], the IC50 was 1000 to 10000 nM.

Regarding `O=C(Nc1ccccn1)c1ccc(CN2C(=O)c3ccncc3NC(=O)[C@H]2Cc2cccnc2)cc1` [Example 35n], the IC50 was 100 to 999 nM. Take `O=C(O)c1ccc(CN2C(=O)c3ccc(Cl)cc3NC(=O)[C@H]2Cc2ccccn2)cc1-c1ccc2c(c1)OCO2` [Example 8c, (R)-2-(benzo[d][1,3]dioxol-5-yl)-4-((8-chloro-2,5-dioxo-3-(pyridin-2-ylmethyl)-2,3-dihydro-1H-benzo[e][1,4]diazepin-4(5H)-yl)methyl)benzoic acid]: the concentration for half-maximal inhibition (IC50) is 100 to 999 nM. Consider `Cc1ccnc(NC(=O)c2ccc(CN3C(=O)c4ccc(Cl)cc4NC(=O)[C@H]3Cc3cccnc3)cc2)c1` [Example 4s, (R)-4-((8-chloro-2,5-dioxo-3-(pyridin-3-ylmethyl)-2,3-dihydro-1H-benzo[e][1,4]diazepin-4(5H)-yl)methyl)-N-(4-methylpyridin-2-yl)benzamide], for which the IC50 was less than 100 nM. As to `COc1cnc(NC(=O)c2ccc(CN3C(=O)c4ccc(Cl)cc4NC(=O)[C@H]3Cc3ccccn3)s2)nc1` [Example 5r, (R)-5-((8-chloro-2,5-dioxo-3-(pyridin-2-ylmethyl)-2,3-dihydro-1H-benzo[e][1,4]diazepin-4(5H)-yl)methyl)-N-(5-methoxypyrimidin-2-yl)thiophene-2-carboxamide], the half-inhibitory concentration (IC50) fell in the range of 100 to 999 nM. In the case of `O=C(Nc1ccccn1)c1ccc(CN2C(=O)c3ccc(Cl)cc3NC(=O)[C@H]2Cc2ccccc2)cc1` [Example 4h, (R)-4-((3-benzyl-8-chloro-2,5-dioxo-2,3-dihydro-1H-benzo[e][1,4]diazepin-4(5H)-yl)methyl)-N-(pyridin-2-yl)benzamide] it was less than 100 nM; in that of `CC(C)c1ccc(NC(=O)c2ccc(CN3C(=O)c4ccc(Cl)cc4NC(=O)[C@H]3C)cc2)nc1` [Example 4az, (R)-4-((8-chloro-3-methyl-2,5-dioxo-2,3-dihydro-1H-benzo[e][1,4]diazepin-4(5H)-yl)methyl)-N-(5-isopropylpyridin-2-yl)benzamide], 100 to 999 nM; in that of `O=C(O)c1ccc(CN2C(=O)c3ccc(Cl)cc3NC(=O)[C@H]2Cc2ccccn2)cc1NC(=O)C1CCCCC1` [Example 22c], 100 to 999 nM. Next, `O=C(NO)c1ccc(CN2C(=O)c3ccc(Cl)cc3NC(=O)[C@H]2Cc2ccccn2)cc1` [Example 40a, (R)-4-((8-Chloro-2,5-dioxo-3-(pyridin-2-ylmethyl)-2,3-dihydro-1H-benzo[e][1,4]diazepin-4(5H)-yl)methyl)-N-hydroxybenzamide]: less than 100 nM; `O=C(Nc1cc(CN2C(=O)c3ccc(Cl)cc3NC(=O)[C@H]2Cc2ccccn2)ccc1C(=O)O)c1ccncc1` [Example 22f]: 1000 to 10000 nM; `O=C1Nc2cc(Cl)ccc2C(=O)N(C[C@H]2CC[C@H](C(=O)Nc3ccccn3)CC2)[C@@H]1Cc1cccnc1` [Example 35l]: 100 to 999 nM. In the case of `COc1ccc2c(c1)NC(=O)[C@@H](Cc1cccnc1)N(Cc1ccc(C(=O)Nc3ccccn3)cc1)C2=O` [Example 4p, (R)-4-((8-methoxy-2,5-dioxo-3-(pyridin-3-ylmethyl)-2,3-dihydro-1H-benzo[e][1,4]diazepin-4(5H)-yl)methyl)-N-(pyridin-2-yl)benzamide] it was less than 100 nM; in that of `O=C(Nc1ccccn1)c1ccc(CN2C(=O)c3ccc(Br)cc3NC(=O)[C@H]2Cc2cccnc2)cc1` [Example 4bd, (R)-4-((8-bromo-2,5-dioxo-3-(pyridin-3-ylmethyl)-2,3-dihydro-1H-benzo[e][1,4]diazepin-4(5H)-yl)methyl)-N-(pyridin-2-yl)benzamide], less than 100 nM.

On to `Cc1ccc(NC(=O)c2ccc(CN3C(=O)c4ccc(Cl)cc4NC(=O)[C@H]3CCN3CCN(C)CC3)cc2)nc1` [Example 10d, (R)-4-((8-chloro-3-(2-(4-methylpiperazin-1-yl)ethyl)-2,5-dioxo-2,3-dihydro-1H-benzo[e][1,4]diazepin-4(5H)-yl)methyl)-N-(5-methylpyridin-2-yl)benzamide], for which the half-inhibitory concentration (IC50) fell in the range of 1000 to 10000 nM.
